Three compounds from publication PMC6788984, “High-potency ligands for DREADD imaging and activation in rodents and monkeys” (Nature Communications, 2019) can be followed below.

Broadly, the EC50 is the concentration that produces a half-maximal response. A low value points to a more potent agent. Usually Ki stands for a measure of affinity in units of concentration, obtained from inhibition or displacement.

Data set [1] deals with 5-HT receptors. Nature of the data set: Binding and enzyme target profile screen (Eurofins). Conditions: competitive binding screen. Here is the method:
These experiments were performed by an outside vendor (Eurofins, France). […] In each experiment, the respective reference compound was tested concurrently with the test compound to assess the assay reliability. […] Following incubation, the samples were filtered rapidly under vacuum through glass fiber filters presoaked in a buffer and rinsed several times with an ice-cold buffer using a 48-sample or 96-sample cell harvester. The filters were counted for radioactivity in a scintillation counter using a scintillation cocktail.

A short description of data set [2]: Brain and serum concentrations in mice after IP injection (LC-MS/MS). The data set is classed as in vivo, mouse. Conditions: for Kp: C57BL/6J, mouse, brain/serum, ip, 0.1 mg kg-1, mice, read-out: brain/serum concentration ratio; for Kp / brain to serum concentration ratio / brain concentration, mean / serum concentration, mean: 0.1 mg kg-1 IP; for brain to serum concentration ratio: 30 min; for brain/serum concentration ratio: 1 mg kg-1 IP. On the procedure:
Monkey blood and CSF samples were collected from totally implanted subcutaneous access ports (Access Technologies, Virginia), connected to catheters indwelling in the femoral artery or intrathecal space of the spinal column, respectively. Rodent blood samples and brains were collected immediately following sacrifice at the indicated time points after intraperitoneal injection (10 ml kg^−1) in buffered saline. CSF was immediately frozen on dry ice and stored at −80 °C. Blood samples were allowed to coagulate for 15 min and then centrifuged at 4 °C for 15 min. Serum was collected from the supernatant and stored at a minimum of −30 °C until extraction. To 25 µl of serum, 5 µl of internal standard and 110 µl of methanol were added. Samples were centrifuged for 10 min at 16,200×g at 4 °C and the supernatant was transferred to the autosampler vial for analysis. Brains were cut in half and weighed prior to sample preparation. Half brains were homogenized in 490 µl of 85% ethanol: 15% water containing 0.1% formic acid and 5 µl of internal standard using a polytron homogenizer and centrifuged for 10 min at 16,200×g at 4 °C. A 300 µl of supernatant was dried under a stream of nitrogen and resuspended in 150 µl methanol. The resuspended solution was then centrifuged and 100 µl of supernatant was transferred to the autosampler vial for analysis.
Data were acquired using a Nexera XR HPLC (Shimadzu) coupled with a QTRAP 6500 (SCIEX), and was analyzed with Analyst 1.6 (SCIEX). The positive-ion mode data were obtained using multiple reaction monitoring (MRM). The instrumental source setting for curtain gas, ion spray voltage, temperature, ion source gas 1, and ion source gas 2 were 30 psi, 5500 V, 500 C, […], respectively.
Mobile phase A consisted of water containing 0.1% formic acid and mobile phase B was methanol containing 0.1% formic acid. […] The injection volume per sample was 10 μl. Samples were kept at 4 °C in the autosampler tray prior to injection.
The data were measured using standard curves and quality controls, but it was not validated to ICH guidelines. […] Quality control standards (low, middle and high) were prepared by adding the spiking standard to solution to 25 μl of serum and/or a half-brain and relative values are reported.

Data set [3] deals with T1, hM3Dq (Homo sapiens, UniProt P20309, A239G/Y149C). Description: Intracellular Ca2+ assay (GCaMP6f) in HEK-293 cells transfected with hM3Dq. The data set is classed as cell-based. Further details: host or cells: HEK-293. Conditions: for EC50: fluorescent assay in HEK-293 cells; for hM3Dq activation, concentration-response points: replicates. Here is the method:
The indicated amount of cDNA was transfected into HEK-293 cells using polyethylenimine (PEI; Sigma-Aldrich) in a 1–2 DNA:PEI ratio. Cell harvesting for radioligand binding experiments or signaling assays were performed approximately 48 h after transfection.
Intracellular Ca^2+ concentration was monitored using the fluorescent Ca^2+ biosensor GCaMP6f. […] The net change in intracellular Ca^2+ concentration was expressed as F − F0 where F is the fluorescence at a given concentration of ligand and F0 is the average of the baseline values (fluorescence values of buffer-treated wells).

The target in data set [4] is T2, hM4Di (Homo sapiens, UniProt P08173, A203G/Y113C).
T2 sequence (P08173 1-479 Y113C/A203G): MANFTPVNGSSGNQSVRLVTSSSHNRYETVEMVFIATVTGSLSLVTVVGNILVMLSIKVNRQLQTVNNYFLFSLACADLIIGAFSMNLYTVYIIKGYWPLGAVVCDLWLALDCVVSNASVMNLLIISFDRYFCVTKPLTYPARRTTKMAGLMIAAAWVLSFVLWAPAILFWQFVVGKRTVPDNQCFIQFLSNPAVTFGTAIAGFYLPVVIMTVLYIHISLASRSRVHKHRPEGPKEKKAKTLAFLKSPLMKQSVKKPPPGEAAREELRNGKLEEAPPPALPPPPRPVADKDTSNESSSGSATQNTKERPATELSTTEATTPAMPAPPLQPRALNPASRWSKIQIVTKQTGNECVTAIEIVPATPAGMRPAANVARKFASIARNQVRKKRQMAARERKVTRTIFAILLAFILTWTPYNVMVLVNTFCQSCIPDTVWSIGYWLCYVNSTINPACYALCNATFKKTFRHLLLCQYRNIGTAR
Nature of the data set: [3H]clozapine competition binding, membranes of HEK-293 cells expressing hM4Di.
Protocol: Cells were routinely tested for myclopasma contamination (MycoAlert® Mycoplasma Detection Kit, Lonza). Cells were seeded on 60 cm^2 dishes at 4 × 10^6 cells/dish 24 h before transfection. The indicated amount of cDNA was transfected into HEK-293 cells using polyethylenimine (PEI; Sigma-Aldrich) in a 1–2 DNA:PEI ratio. Cell harvesting for radioligand binding experiments or signaling assays were performed approximately 48 h after transfection.
Cells were suspended in Tris-HCl 50 mM pH 7.4 supplemented with protease inhibitor cocktail (1:100, Sigma-Aldrich, St. Louis, MO, USA). The dissected brain tissue was diluted in Tris-HCl 50 mM buffer supplemented with protease inhibitor cocktail (1:1000). HEK-293 cells or brain tissue were disrupted with a Polytron homogenizer (Kinematica, Basel, Switzerland). Homogenates were centrifuged at 48,000g (50 min, 4 °C) and washed twice in the same conditions to isolate the membrane fraction. Protein was quantified by the bicinchoninic acid method (Pierce). […] In all cases, free and membrane-bound radioligand were separated by rapid filtration of 500-μl aliquots in a 96-well plate harvester (Brandel, Gaithersburg, MD, USA) and washed with 2 ml of ice-cold Tris-HCl buffer. […] One-site competition curves were fitted using Prism 7 (GraphPad Software, La Jolla, CA, USA). Ki values were calculated using the Cheng–Prusoff equation.

Data set [5] deals with T1, hM3Dq. Nature of the data set: Locomotor activity in TH-hM3Dq rats. The data set is classed as in vivo, rat. Further details: host or cells: TH-expressing neurons of the ventral tegmental area in TH:Cre rats (AAV transduction, in vivo). Conditions: for hM3Dq-stimulated locomotion: 0.01-0.3 mg kg-1. On the procedure: Tyrosine hydroxylase (TH):Cre rats (n = 9; founder, K. Deisseroth lab) or WT littermates (n = 9) were bilaterally injected with AAV2 hSyn-DIO-hM3Dq-mCherry (1ul/hemisphere, Addgene), and allowed to recover for 2 + weeks. […] Vehicle was administered on 2 separate days, and average locomotion was used for comparison with DREADD agonists. Cohort 2 underwent the same procedures, but with a 4 h testing session, and the following IP injections: vehicle (x2), JHU37152 (0.01–0.3 mg kg^−1), JHU37160 (0.01–0.3 mg kg^−1). All drugs were dissolved in 5% DMSO in saline, and injected 1 ml kg^−1.

Values joined by “and” are separate entries in the source; they are usually repeats but may differ in a detail not shown here. Equal values may be shown once. Read-outs that look alike come from different tables or passages of the source.

T1 sequence (P20309 whole entry Y149C/A239G): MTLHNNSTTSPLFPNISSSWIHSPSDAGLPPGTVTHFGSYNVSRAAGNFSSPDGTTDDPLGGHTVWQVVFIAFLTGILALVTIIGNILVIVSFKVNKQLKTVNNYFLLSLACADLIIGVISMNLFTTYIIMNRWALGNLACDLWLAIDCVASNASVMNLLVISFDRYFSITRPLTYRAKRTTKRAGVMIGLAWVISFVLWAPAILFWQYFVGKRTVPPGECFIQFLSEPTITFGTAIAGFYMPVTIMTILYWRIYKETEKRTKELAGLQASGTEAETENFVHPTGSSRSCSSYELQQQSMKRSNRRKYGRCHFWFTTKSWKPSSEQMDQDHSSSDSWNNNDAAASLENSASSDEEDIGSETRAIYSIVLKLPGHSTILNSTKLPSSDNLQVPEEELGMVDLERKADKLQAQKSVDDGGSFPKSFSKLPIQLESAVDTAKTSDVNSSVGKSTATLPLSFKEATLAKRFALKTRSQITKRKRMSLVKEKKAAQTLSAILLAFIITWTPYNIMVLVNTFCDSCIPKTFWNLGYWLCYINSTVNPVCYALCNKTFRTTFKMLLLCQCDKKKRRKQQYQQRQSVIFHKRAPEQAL

For `CCN1CCN(C2=Nc3cc(Cl)ccc3Nc3c(F)cccc32)CC1` [JHU37160, 8-Chloro-11-(4-ethylpiperazin-1-yl)-4-fluoro-5H-dibenzo[b,e][1,4]diazepine], the “affinity at 5-HT receptors relative to clozapine” value in data set [1] is reported as “lower affinity than clozapine”. Moreover, the Kp turned out to be 6.45 in data set [2] (time 10); 8.48 in data set [2] (time 30); 12.9 in data set [2] (time 60); 9.72 in data set [2] (time 120); 15.4 in data set [2] (time 240). Moreover, in data set [2] (mice), the “brain to serum concentration ratio” value is “~eightfold higher in the brain than serum”. Further, the “brain concentration, mean” value was 15.2721 in data set [2] (mice, time 10); 9.242 in data set [2] (mice, time 30); 8.73 in data set [2] (mice, time 60); 8.1596 in data set [2] (mice, time 120); 3.199 in data set [2] (mice, time 240). For the same compound, the “serum concentration, mean” value is listed as 2.637 in data set [2] (mice, time 10); 1.58 in data set [2] (mice, time 30); 0.7534 in data set [2] (mice, time 60); 0.8413 in data set [2] (mice, time 120); 0.319 in data set [2] (mice, time 240). In data set [3], the EC50 was determined as 18.5 nM. In data set [4], this compound gave a Ki of 3.6 nM. The “improved affinity compared to C21” value in data set [4] was ~ 25 fold. Moreover, the “Locomotor activity, individual animals (Figure 3 Panel G)” value in data set [5] (dose 0.01, listed as J60) is 279.417 and 1024.06 and 48.7042 and 167.624 and 1237.61 and 111.992 and 663.301; in data set [5] (dose 0.1, listed as J60) it was 1035.55 and 900.553 and 68.6081 and 759.611 and 1367.43 and 667.9 and 184.82. For the same compound, the hM3Dq-stimulated locomotion result in data set [5] (TH-hM3Dq rats) is recorded as “robust, selective increases in hM3Dq-stimulated locomotion”.
For `c1ccc2c(c1)N=C(N1CCNCC1)c1ccccc1N2` [C21], the brain/serum concentration ratio in data set [2] (mice, time 10) was 0.1059; in data set [2] (mice, time 30), 0.2543; in data set [2] (mice, time 60), 0.2987; in data set [2] (mice, time 120), 0.4106; in data set [2] (mice, time 240) it was 0.6284. Also, the brain/serum ratio entry in data set [2] (mice, systemic administration) is “low brain/serum ratios”. Besides, the “hM3Dq activation, concentration-response points” value in data set [3] (Log [compound] -5) was 93.1143 and 77.3513 and 111.083; in data set [3] (Log [compound] -6), 96.4744 and 82.7674 and 98.8645; in data set [3] (Log [compound] -7) it was 74.044 and 103.149 and 78.6539; in data set [3] (Log [compound] -8) it was 83.0838 and 91.1589 and 81.1662; in data set [3] (Log [compound] -9), 6.817 and 0.07299 and 9.557; in data set [3] (Log [compound] -10), -3.555 and -5.9944 and 2.166. Also, the “hM3Dq activation, concentration-response points” value in data set [3] (Log [compound] -11) was -13.1516 and -2.046 and 1.55; in data set [3] (Log [compound] -12), -8.693 and -2.2785 and 8.813. Moreover, in data set [3] (transfected HEK-293 cells), the “hM3Dq-mediated intracellular Ca2+ increases” value is “potent intracellular Ca^2+ increases comparable to that of clozapine”. Also, the Ki in data set [4] (read-out: hM4Di Ki, [3H]clozapine competition, HEK-293 membranes) is 91 nM. The locomotor activity entry in data set [5] (TH-hM3Dq rats, 1 or 5 mg/kg IP) is “significant increases in locomotor activity”.
Take `CCN1CCN(C2=Nc3cc(Cl)ccc3Nc3cccc(F)c32)CC1` [JHU37152, 8-Chloro-11-(4-ethylpiperazin-1-yl)-1-fluoro-5H-dibenzo[b,e][1,4]diazepine]: the “affinity at 5-HT receptors relative to clozapine” value in data set [1] is “lower affinity than clozapine”. Moreover, the Kp in data set [2] (time 10) is 3.52; in data set [2] (time 30) it was 6.76; in data set [2] (time 60) it was 5.99; in data set [2] (time 120), 4.52; in data set [2] (time 240), 3.05. For the same compound, in data set [2] (mice), the “brain to serum concentration ratio” value is recorded as “~eightfold higher in the brain than serum”. Also, the “brain concentration, mean” value in data set [2] (mice, time 10) is listed as 58.5075; in data set [2] (mice, time 30), 52.9484; in data set [2] (mice, time 60), 40.9216; in data set [2] (mice, time 120), 7.985; in data set [2] (mice, time 240), 2.907. The “serum concentration, mean” value in data set [2] (mice, time 10) was determined as 16.6091; in data set [2] (mice, time 30), 6.63; in data set [2] (mice, time 60), 6.9214; in data set [2] (mice, time 120), 2.387; in data set [2] (mice, time 240) it was 1.533. In data set [3], this compound displayed an EC50 of 5 nM. In addition, the Ki in data set [4] was found to be 8.7 nM. The “Locomotor activity, individual animals (Figure 3 Panel G)” value in data set [5] (dose 0.01, listed as J52) was 94.7443 and 207.479 and 64.3586 and 274.036 and 1667.81 and 1211.25 and 111.862; in data set [5] (dose 0.1, listed as J52), 1115.35 and 940.001 and 366.654 and 337.558 and 1635.37 and 694.852 and 547.724. Moreover, the hM3Dq-stimulated locomotion result in data set [5] (TH-hM3Dq rats) is given as “robust, selective increases in hM3Dq-stimulated locomotion”.
